From US11498899B2, “Nitrone herbicides” (FMC Corporation, priority 2016, dated 2022)

Tests used:
[1] = test system: barnyardgrass (Echinochloa crus-galli); test: Test B flooded paddy test, visual rating 0-100; conditions: Flood, 250 g ai/ha, applied to paddy water, rated after 13 to 15 days
[2] = test system: barnyardgrass (Echinochloa crus-galli); test: Test A preemergence, visual injury rating 0-100 (0 no effect, 100 complete control); format: in vivo
rice (Oryza sativa) = test: Test B flooded paddy test, visual rating 0-100 (0 no effect, 100 complete control); conditions: Flood, 250 g ai/ha, applied to paddy water, rated after 13 to 15 days
[3] = test system: ragweed (common ragweed, Ambrosia elatior); test: Test A preemergence, visual injury rating 0-100; format: in vivo
[4] = test system: ryegrass, Italian (Italian ryegrass, Lolium multiflorum); test: Test A preemergence, visual injury rating 0-100; format: in vivo
[5] = test system: foxtail, giant (giant foxtail, Setaria faberii); test: Test A preemergence, visual injury rating 0-100; format: in vivo
[6] = test system: pigweed (Amaranthus retroflexus); test: Test A preemergence, visual injury rating 0-100; format: in vivo
kochia (Kochia scoparia) [7] = test: Test A preemergence, visual injury rating 0-100; format: in vivo
[8] = test system: ducksalad (Heteranthera limosa); test: Test B flooded paddy test, visual rating 0-100; conditions: Flood, 250 g ai/ha, applied to paddy water, rated after 13 to 15 days
[9] = test system: ragweed (common ragweed, Ambrosia elatior); test: Test A postemergence, visual injury rating 0-100; format: in vivo; conditions: 0 to 100 scale
[10] = test system: ryegrass, Italian (Italian ryegrass, Lolium multiflorum); test: Test A postemergence, visual injury rating 0-100; format: in vivo; conditions: 0 to 100 scale
[11] = test system: foxtail, giant (giant foxtail, Setaria faberii); test: Test A postemergence, visual injury rating 0-100; format: in vivo; conditions: 0 to 100 scale
[12] = test system: pigweed (Amaranthus retroflexus); test: Test A postemergence, visual injury rating 0-100; format: in vivo; conditions: 0 to 100 scale
corn (Zea mays) = test: Test A postemergence, visual injury rating 0-100; format: in vivo; conditions: 0 to 100 scale
kochia (Kochia scoparia) [13] = test: Test A postemergence, visual injury rating 0-100; format: in vivo; conditions: 0 to 100 scale
[14] = test system: galium (catchweed bedstraw, Galium aparine); test: Test A postemergence, visual injury rating 0-100; format: in vivo; conditions: 0 to 100 scale
[15] = test system: barnyardgrass (Echinochloa crus-galli); test: Test A postemergence, visual injury rating 0-100; format: in vivo; conditions: 0 to 100 scale
[16] = test system: wheat (Triticum aestivum); test: Test A postemergence, visual injury rating 0-100; format: in vivo; conditions: 0 to 100 scale
[17] = test system: blackgrass (Alopecurus myosuroides); test: Test A postemergence, visual injury rating 0-100; format: in vivo; conditions: 0 to 100 scale

COc1cc(C)cc(C2CC(C)=[N+]([O-])C2C(=O)Nc2cccc(F)c2F)c1 (stereo not drawn) [Compound 91] was tested, and the “Barnyardgrass plant response rating (0 to 100 scale)” value [1] was 65, the “Barnyardgrass plant response rating (0 to 100 scale)” value ([2]; 125 g ai/ha) was 90 and the “Barnyardgrass plant response rating (0 to 100 scale)” value ([2]; 500 g ai/ha) was 90. For the same compound, the “Rice plant response rating (0 to 100 scale)” value (“Rice plant response rating” below) (rice (Oryza sativa)) was 0, the “Ragweed plant response rating (0 to 100 scale)” value ([3]; 125 g ai/ha) was 20 and the “Ragweed plant response rating (0 to 100 scale)” value ([3]; 500 g ai/ha) was 70. The “Ryegrass, Italian plant response rating (0 to 100 scale)” value (“Ryegrass … (0 to 100 scale)” below) ([4]; 125 g ai/ha) was 80, the “Ryegrass … (0 to 100 scale)” value ([4]; 500 g ai/ha) was 90 and the “Foxtail, Giant plant response rating (0 to 100 scale)” value (shortened to “Foxtail … (0 to 100 scale)”) ([5]; 125 g ai/ha) was 90. The “Foxtail … (0 to 100 scale)” value ([5]; 500 g ai/ha) was 90, the “Pigweed plant response rating (0 to 100 scale)” value ([6]; 125 g ai/ha) was 0 and the “Pigweed plant response rating (0 to 100 scale)” value ([6]; 500 g ai/ha) was 60. The “Kochia plant response rating (0 to 100 scale)” value (kochia (Kochia scoparia) [7]; 125 g ai/ha) was 0, the “Kochia plant response rating (0 to 100 scale)” value (kochia (Kochia scoparia) [7]; 500 g ai/ha) was 60 and the “Ducksalad plant response rating (0 to 100 scale)” value (from here on “Ducksalad plant response rating”) [8] was 55. For the same compound, the “Ragweed plant response rating” value ([9]; 125 g ai/ha) was 0, the “Ragweed plant response rating” value ([9]; 500 g ai/ha) was 30 and the “Ryegrass, Italian plant response rating” value ([10]; 125 g ai/ha) was 50. The “Ryegrass, Italian plant response rating” value ([10]; 500 g ai/ha) was 50, the “Foxtail, Giant plant response rating” value ([11]; 125 g ai/ha) was 70 and the “Foxtail, Giant plant response rating” value ([11]; 500 g ai/ha) was 90. For the same compound, the “Pigweed plant response rating” value ([12]; 125 g ai/ha) was 0, the “Pigweed plant response rating” value ([12]; 500 g ai/ha) was 30 and the “Corn plant response rating” value (corn (Zea mays); 125 g ai/ha) was 20. For the same compound, the “Corn plant response rating” value (corn (Zea mays); 500 g ai/ha) was 70, the “Kochia plant response rating” value (kochia (Kochia scoparia) [13]; 125 g ai/ha) was 0 and the “Kochia plant response rating” value (kochia (Kochia scoparia) [13]; 500 g ai/ha) was 30. The “Galium plant response rating” value ([14]; 125 g ai/ha) was 0, the “Galium plant response rating” value ([14]; 500 g ai/ha) was 30 and the “Barnyardgrass plant response rating” value ([15]; 125 g ai/ha) was 70. For the same compound, the “Barnyardgrass plant response rating” value ([15]; 500 g ai/ha) was 90, the “Wheat plant response rating” value ([16]; 125 g ai/ha) was 20 and the “Wheat plant response rating” value ([16]; 500 g ai/ha) was 50. For the same compound, the “Blackgrass plant response rating” value ([17]; 125 g ai/ha) was 60 and the “Blackgrass plant response rating” value ([17]; 500 g ai/ha) was 80.
CC1=[N+]([O-])C(C(=O)Nc2cccc(F)c2F)C(c2cc(C)cc(C(F)(F)F)c2)C1 (stereo not drawn) [Compound 92] was tested, and the “Barnyardgrass plant response rating (0 to 100 scale)” value [1] was 70, the “Barnyardgrass plant response rating (0 to 100 scale)” value ([2]; 125 g ai/ha) was 90 and the “Barnyardgrass plant response rating (0 to 100 scale)” value ([2]; 500 g ai/ha) was 90. The “Rice plant response rating” value (rice (Oryza sativa)) was 0, the “Ragweed plant response rating (0 to 100 scale)” value ([3]; 125 g ai/ha) was 0 and the “Ragweed plant response rating (0 to 100 scale)” value ([3]; 500 g ai/ha) was 70. For the same compound, the “Ryegrass … (0 to 100 scale)” value ([4]; 125 g ai/ha) was 80, the “Ryegrass … (0 to 100 scale)” value ([4]; 500 g ai/ha) was 90 and the “Foxtail … (0 to 100 scale)” value ([5]; 125 g ai/ha) was 90. The “Foxtail … (0 to 100 scale)” value ([5]; 500 g ai/ha) was 90, the “Pigweed plant response rating (0 to 100 scale)” value ([6]; 125 g ai/ha) was 30 and the “Pigweed plant response rating (0 to 100 scale)” value ([6]; 500 g ai/ha) was 80. For the same compound, the “Kochia plant response rating (0 to 100 scale)” value (kochia (Kochia scoparia) [7]; 125 g ai/ha) was 0, the “Kochia plant response rating (0 to 100 scale)” value (kochia (Kochia scoparia) [7]; 500 g ai/ha) was 50 and the “Ducksalad plant response rating” value [8] was 25. The “Ragweed plant response rating” value ([9]; 125 g ai/ha) was 0, the “Ragweed plant response rating” value ([9]; 500 g ai/ha) was 70 and the “Ryegrass, Italian plant response rating” value ([10]; 125 g ai/ha) was 60. For the same compound, the “Ryegrass, Italian plant response rating” value ([10]; 500 g ai/ha) was 70, the “Foxtail, Giant plant response rating” value ([11]; 125 g ai/ha) was 70 and the “Foxtail, Giant plant response rating” value ([11]; 500 g ai/ha) was 90. For the same compound, the “Pigweed plant response rating” value ([12]; 125 g ai/ha) was 20, the “Pigweed plant response rating” value ([12]; 500 g ai/ha) was 60 and the “Corn plant response rating” value (corn (Zea mays); 125 g ai/ha) was 70. The “Corn plant response rating” value (corn (Zea mays); 500 g ai/ha) was 80, the “Kochia plant response rating” value (kochia (Kochia scoparia) [13]; 125 g ai/ha) was 30 and the “Kochia plant response rating” value (kochia (Kochia scoparia) [13]; 500 g ai/ha) was 70. For the same compound, the “Galium plant response rating” value ([14]; 125 g ai/ha) was 50, the “Galium plant response rating” value ([14]; 500 g ai/ha) was 60 and the “Barnyardgrass plant response rating” value ([15]; 125 g ai/ha) was 70. For the same compound, the “Barnyardgrass plant response rating” value ([15]; 500 g ai/ha) was 90, the “Wheat plant response rating” value ([16]; 125 g ai/ha) was 70 and the “Wheat plant response rating” value ([16]; 500 g ai/ha) was 80. For the same compound, the “Blackgrass plant response rating” value ([17]; 125 g ai/ha) was 70 and the “Blackgrass plant response rating” value ([17]; 500 g ai/ha) was 70.
For CC1=[N+]([O-])C(C(=O)Nc2cccc(F)c2F)C(c2cc(C)cc(Cl)c2)C1 (stereo not drawn) [Compound 94], the “Barnyardgrass plant response rating (0 to 100 scale)” value [1] was 60, the “Barnyardgrass plant response rating (0 to 100 scale)” value ([2]; 125 g ai/ha) was 90 and the “Barnyardgrass plant response rating (0 to 100 scale)” value ([2]; 500 g ai/ha) was 90. The “Rice plant response rating” value (rice (Oryza sativa)) was 0, the “Ragweed plant response rating (0 to 100 scale)” value ([3]; 125 g ai/ha) was 30 and the “Ragweed plant response rating (0 to 100 scale)” value ([3]; 500 g ai/ha) was 90. The “Ryegrass … (0 to 100 scale)” value ([4]; 125 g ai/ha) was 60, the “Ryegrass … (0 to 100 scale)” value ([4]; 500 g ai/ha) was 80 and the “Foxtail … (0 to 100 scale)” value ([5]; 125 g ai/ha) was 90. For the same compound, the “Foxtail … (0 to 100 scale)” value ([5]; 500 g ai/ha) was 90, the “Pigweed plant response rating (0 to 100 scale)” value ([6]; 125 g ai/ha) was 20 and the “Pigweed plant response rating (0 to 100 scale)” value ([6]; 500 g ai/ha) was 80. For the same compound, the “Kochia plant response rating (0 to 100 scale)” value (kochia (Kochia scoparia) [7]; 125 g ai/ha) was 10, the “Kochia plant response rating (0 to 100 scale)” value (kochia (Kochia scoparia) [7]; 500 g ai/ha) was 60 and the “Ducksalad plant response rating” value [8] was 100. The “Ragweed plant response rating” value ([9]; 125 g ai/ha) was 20, the “Ragweed plant response rating” value ([9]; 500 g ai/ha) was 70 and the “Ryegrass, Italian plant response rating” value ([10]; 125 g ai/ha) was 60. The “Ryegrass, Italian plant response rating” value ([10]; 500 g ai/ha) was 90, the “Foxtail, Giant plant response rating” value ([11]; 125 g ai/ha) was 80 and the “Foxtail, Giant plant response rating” value ([11]; 500 g ai/ha) was 90. The “Pigweed plant response rating” value ([12]; 125 g ai/ha) was 20, the “Pigweed plant response rating” value ([12]; 500 g ai/ha) was 70 and the “Corn plant response rating” value (corn (Zea mays); 125 g ai/ha) was 70. The “Corn plant response rating” value (corn (Zea mays); 500 g ai/ha) was 80, the “Kochia plant response rating” value (kochia (Kochia scoparia) [13]; 125 g ai/ha) was 20 and the “Kochia plant response rating” value (kochia (Kochia scoparia) [13]; 500 g ai/ha) was 30. For the same compound, the “Galium plant response rating” value ([14]; 125 g ai/ha) was 20, the “Galium plant response rating” value ([14]; 500 g ai/ha) was 60 and the “Barnyardgrass plant response rating” value ([15]; 125 g ai/ha) was 80. For the same compound, the “Barnyardgrass plant response rating” value ([15]; 500 g ai/ha) was 90, the “Wheat plant response rating” value ([16]; 125 g ai/ha) was 40 and the “Wheat plant response rating” value ([16]; 500 g ai/ha) was 80. For the same compound, the “Blackgrass plant response rating” value ([17]; 125 g ai/ha) was 70 and the “Blackgrass plant response rating” value ([17]; 500 g ai/ha) was 90.
